From US20190201376A1, “Method for Treating or Preventing Fatty Acid Binding Protein 3 Induced B-amyloid Aggregation Diseases” (NATIONAL TAIWAN NORMAL UNIVERSITY, priority 2017, published 2019) come the findings set out here.

The test system of data set [1] is 3×Tg AD transgenic mice. Put plainly: Morris water maze test. It is filed as in vivo. As to conditions: 3×Tg AD mice, artemisinin 1 mg/kg i.p. every other day from 12 to 36 weeks of age, tested at 36 weeks; p<0.05. How it is done: In the present embodiment, 3×Tg AD transgenic mice were obtained from the Jackson Laboratory (004807), and wild-type C57BL/6 mice were purchased from the National Laboratory Animal Center. The body weights of the animals were measured every eight weeks from 12th to 36th week-old. The animals were i.p. administered with pure water or artemisinin (1 mg/kg) every other day from 12 weeks to 36 weeks of age; the WT-W group was water vehicle-treated wild-type mice; the AD-W group was water vehicle-treated 3×Tg AD transgenic mice; and AD-R group was artemisinin-treated 3×Tg AD transgenic mice. The animals were examined by using behavioral tasks, including Morris water maze test, spontaneous alternation behavior Y-maze test, and novel object recognition task test, when they were 36-week-old. To evaluate whether artemisinin ameliorates the spatial learning and memory deficits, the Morris water maze test was performed. […] After the last trail, mice were subjected to the probe test that the platform was removed, and the time spent in quadrants was recorded by a computer-controlled system.

The test system of data set [2] is 3×Tg AD transgenic mice. Description: Spontaneous alternation behavior Y-maze test. It is filed as in vivo. To be noted: 3×Tg AD mice, artemisinin 1 mg/kg i.p. every other day from 12 to 36 weeks of age, tested at 36 weeks. How it is done:
In the present embodiment, 3×Tg AD transgenic mice were obtained from the Jackson Laboratory (004807), and wild-type C57BL/6 mice were purchased from the National Laboratory Animal Center. The body weights of the animals were measured every eight weeks from 12th to 36th week-old. The animals were i.p. administered with pure water or artemisinin (1 mg/kg) every other day from 12 weeks to 36 weeks of age; the WT-W group was water vehicle-treated wild-type mice; the AD-W group was water vehicle-treated 3×Tg AD transgenic mice; and AD-R group was artemisinin-treated 3×Tg AD transgenic mice. The animals were examined by using behavioral tasks, including Morris water maze test, spontaneous alternation behavior Y-maze test, and novel object recognition task test, when they were 36-week-old. The spontaneous alternation behavior Y-maze test was used to estimate short-term memory. The Y-maze was a three-arm maze (30 cm long and 5 cm wide with 12 cm in height) with equal angles and the arms were labeled A, B, and C. The 36-week-old mice (n=6 per group) administered with aforementioned treatment were initially placed within one arm, and the number of arm entries and the number of alternations were recorded for eight min period for each mouse. […] The percentage of alternation was calculated by the following equation: Alternation (%)=[(Number of alternation)/(Total arm entries−2)]×100.

The test system of data set [3] is stably transfected human FABP3-SH-SY5Y cells. Description: Western blot of Aβ42 oligomerization in stably transfected human FABP3-SH-SY5Y cells. As to conditions: artemisinin 4 μM pretreatment 4 hours, Aβ42 2.5 μM 24 hours. The format is cell-based. How it is done: (§1) Human neuroblastoma SH-SY5Y cell line was obtained from American Type Culture Collection (ATCC® CRL-2266™) and maintained in Dulbecco's Modified Eagle Medium with nutrient mixture F-12 (DMEM/F12; Invitrogen) media supplemented with 10% FBS, 100 U/mL penicillin and 100 μg/mL streptomycin at 37° C. in a 5% CO2 humidified incubator.
Human FAPB3 cDNA, which was reverse transcribed from the total RNA of SH-SY5Y cells, was amplified by polymerase chain reaction (PCR) using primers (5′-[…] and 5′-TGCCTCTrTCTCATAAGTG) and then cloned into pcDNA™3.1D/V5-His-TOPO vector (Invitrogen). SH-SY5Y cells stably expressing human FABP3 were obtained using lipofectamine transfection with selection via cultivation in DMEM/F12 medium (Gibco) containing 500 μg/mL G418 (Sigma-Aldrich).
Then, the stably transfected human FABP3-SH-SY5Y cells were washed with PBS and lysed with radioimmunoprecipitation (RIPA) buffer supplemented with cOmplete™ Protease Inhibitor Cocktail (Sigma-Aldrich). The samples with equal amounts of total protein (50 μg) were fractionated by SDS-PAGE and electrotransferred to a polyvinylidene difluoride (PVDF) membrane (Millipore). The membrane was blocked for one hour at room temperature with 10% nonfat milk in TBST buffer (20 mM Tris-HCl, 150 mM NaCl, and 0.1% Tween 20); thereafter, the membrane was incubated with 6E10 (BioLegend), FABP3 (Santa Cruz) or GAPDH (Santa Cruz) antibodies. […]

Data set [4] concerns the target T1, recombinant human FABP3 protein (FABP3-induced Aβ42 oligomerization) (Homo sapiens, UniProt P05413).
T1 construct: purchased Cayman Chemical
Description: Western blot of Aβ42 oligomerization with recombinant FABP3 pre-incubated with artemisinin. It is filed as biochemical. As to conditions: artemisinin 4 μM preincubated with FABP3 2.5 μM for four hours, then Aβ42 oligomers 2.5 μM 24 hours; 6E10 antibody, ImageJ; p<0.05. How it is done:
Synthetic Aβ42 peptides (AnaSpec) were solubilized in hexafluoroisopropanol (HFIP), and then HFIP was allowed to be evaporated completely under nitrogen flow. Aβ42 peptides were resuspended using phosphate buffered saline (PBS) to […], and were incubated to assemble oligomers at room temperature for 24 hours prior to use. The oligomeric status of AP was verified by sodium dodecyl sulfate polyacrylamide gel electrophoresis (SDS-PAGE).
Afterwards, the oligomerization of Aβ42 was analyzed using western blot analysis and detected with 6E10 antibody.

Data set [5] relates to SH-SY5Y cells transfected with human FABP3. Description: MTT cell viability assay, Aβ42 cytotoxicity in FABP3-transfected SH-SY5Y cells. The format is cell-based. To be noted: pcDNA3/FABP3 SH-SY5Y cells, artemisinin (0-4 μM) pretreatment four hours, Aβ42 2.5 μM 24 hours; increased from 65% without artemisinin; p<0.01. How it is done:
as §1
Human FAPB3 cDNA, which was reverse transcribed from the total RNA of SH-SY5Y cells, was amplified by polymerase chain reaction (PCR) using primers (5′-[…] and 5′-TGCCTCTTCTCATAAGTG) and then cloned into pcDNA™3.1D/V5-His-TOPO vector (Invitrogen). SH-SY5Y cells stably expressing human FABP3 were obtained using lipofectamine transfection with selection via cultivation in DMEM/F12 medium (Gibco) containing 500 µg/mL G418 (Sigma-Aldrich).
Afterwards, purple formazan crystals formed by reduction of MTT in the mitochondria of living cells were dissolved in 100 μl solution containing 10% SDS and 0.01N HCl. The absorbance was measured at 570 nm with an ELISA reader (pQuant; BioTek Instruments, Inc).

For data set [6], the system named is 3×Tg AD transgenic mice. Put plainly: Novel object recognition test. It is filed as in vivo. As to conditions: 3×Tg AD mice, artemisinin 1 mg/kg i.p. every other day from 12 to 36 weeks of age, versus untreated 3×Tg AD mice; p<0.05. How it is done:
In the present embodiment, 3×Tg AD transgenic mice were obtained from the Jackson Laboratory (004807), and wild-type C57BL/6 mice were purchased from the National Laboratory Animal Center. The body weights of the animals were measured every eight weeks from 12th to 36th week-old. The animals were i.p. administered with pure water or artemisinin (1 mg/kg) every other day from 12 weeks to 36 weeks of age; the WT-W group was water vehicle-treated wild-type mice; the AD-W group was water vehicle-treated 3×Tg AD transgenic mice; and AD-R group was artemisinin-treated 3×Tg AD transgenic mice. The animals were examined by using behavioral tasks, including Morris water maze test, spontaneous alternation behavior Y-maze test, and novel object recognition task test, when they were 36-week-old. The novel object recognition was conducted to examine whether artemisinin can restore recognition memory, which involves the frontal cortex, entorhinal cortex and hippocampus; it was used to evaluate the inborn tendency of the rodents to explore novel objects rather than familiar ones. During the first two days, mice were habituated to open field (50×40 cm, with 22 cm in height) for two sessions of 10 min each day in order to be familiar with the apparatus. […] The discrimination index was calculated as percentage ratio of TB/(TA+TB)×100. […]

T1 sequence (P05413 whole entry): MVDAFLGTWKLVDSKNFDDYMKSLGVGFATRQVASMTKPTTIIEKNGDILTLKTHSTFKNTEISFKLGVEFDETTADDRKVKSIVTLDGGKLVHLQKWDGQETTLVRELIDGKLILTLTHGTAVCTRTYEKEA

For the compound `C[C@@H]1CC[C@H]2[C@@H](C)C(=O)O[C@@H]3O[C@@]4(C)CC[C@@H]1[C@]32OO4` [artemisinin], the “time in finding the hidden platform” value with 3×Tg AD transgenic mice [1] is “significantly less time”. In the data set with 3×Tg AD transgenic mice [2], the “spatial working memory (spontaneous alternation rate)” value is given as “restored spatial working memory to the extent similar as that of the wild-type group”. Also, in data set [3], the “decrease of Aβ42 tetramer induced by FABP3 overexpression” value is 87% and the “decrease of Aβ42 trimer induced by FABP3 overexpression” value was 78%. Besides, in data set [4], the “decrease of Aβ42 tetramer induced by FABP3” value is recorded as 156% and the “decrease of Aβ42 trimer induced by FABP3” value stood at 144%. Also, the cell viability in data set [5] was 85%. The “increment in the discrimination index” value in the data set with 3×Tg AD transgenic mice [6] is recorded as 56%.
